Source: patent US11717569B2, “Tolerogenic synthetic nanocarriers” (Selecta Biosciences, Inc., priority 2011, dated 2023)

Tests used:
[1] = system: iNKT cells; assay: CD69 activation on liver iNKT cells in vivo; conditions: mice that received aGC
Experimental: Mice were designated to groups that received PBS alone, sol aGC+solRAPA, sol aGC+NP RAPA. Mice were injected at 9 am and at 9.30 AM received BrefeldinA i.v. to prevent release of intracellular cytokines produced. At 1 pm, mice were sacrificed and the liver was perfused with PBS and processed to obtain a single cell suspension enriched for lymphocytes. Cells were stained with cell surface markers for iNKT cells (agc-loaded CD1d tetramers) and T cells receptor (TCRb) and activation marker CD69. Cells were acquired on a FacsCanto flow cytometer and analyzed on by FlowJo.

[2] = system: Treg cells (CD4+CD25highFoxP3+); assay: Antigen-specific tolerogenic dendritic cells (tDC) activity on Treg cell development; format: cell-based, OTII mice; conditions: FIG. 3; unstimulated 1.3%
Experimental: The assay included the use of OTII mice which have a transgenic T cell receptor specific for an immune-dominant ovalbumin peptide (323-339). In order to create antigen-specific tDCs, CD11c^+ splenocytes were isolated, and the ovalbumin peptide (323-339) added in vitro at 1 μg/ml or no antigen. Soluble or nanocarrier-encapsulated rapamycin was then added to the DCs for 2 hours which were then washed extensively to remove free rapamycin from the culture. Purified responder CD4^+CD25^− cells were isolated from OTII mice and added to tDC at a 10:1 T to DC ratio. The mixture of tDC and OTII T cells were then cultured for 4-5 days, and the frequency of Treg cells (CD4^+CD25highFoxP3^+) were analyzed by flow cytometry as shown in FIG. 1. Regions were selected based on isotype controls.
Free rapamycin or synthetic nanocarriers containing rapamycin were combined with free soluble Ovalbumin (323-339) to evaluate induction of tDC (FIG. 2). […] Briefly, antigen specific tDC were obtained by isolating dendritic cells (CD11c^+ splenocytes) and culturing them in combination with the Ovalbumin (323-339) peptide plus soluble or nanocarrier encapsulated rapamycin (Synthetic Nanocarrier #s 13, 14, 15 and 16) for 2 hours followed by extensive washing. […] The mixture of tDC and OTII T cells were then cultured for 4-5 days, and the frequency of Treg cells (CD4^+CD25highFoxP3^+) were analyzed by flow cytometry.

| Compound | iNKT cell activation (cytokine production and up regulation of CD69) [1] | induction of FoxP3 expressing cells [2] |
| --- | --- | --- |
| CCCCCCCCCCCCCCCCCCCCCCCCCC(=O)N[C@@H](CO[C@H]1O[C@H](CO)[C@H](O)[C@H](O)[C@H]1O)[C@H](O)[C@H](O)CCCCCCCCCCCCCC [aGC, α-Galactosyl Ceramide (KRN7000)] | activated |  |
| CO[C@H]1C[C@@H]2CC[C@@H](C)[C@@](O)(O2)C(=O)C(=O)N2CCCC[C@H]2C(=O)O[C@H]([C@H](C)C[C@@H]2CC[C@@H](O)[C@H](OC)C2)CC(=O)[C@H](C)/C=C(\C)[C@@H](O)[C@@H](OC)C(=O)[C@H](C)C[C@H](C)/C=C/C=C/C=C/1C [free rapamycin, Rapamycin] |  | 2.7% |
